Data: PubChem BioAssay AID1259411 (Chemical Carcinogenesis Research Information System (CCRIS), 2018)
The source made the active and inactive calls. The rule behind the calls is not given here.

Test system: rodent carcinogenicity bioassays, tumor incidence
Experiment: CCRIS carcinogenicity studies
How it was run: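 NCI-built, expert-reviewed records of carcinogenicity and related test outcomes (mutagenicity, tumor promotion/inhibition) compiled from published and report sources, historical span 1985-2011, not updated.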

Measured: carcinogen call

CC(C)=CCl
active: Species: MOUSE, Strain/Sex: B6C3F1/FEMALE, Route: GAVAGE, Dose: 0, 100, 200 MG/KG IN CORN OIL 5 D/WK FOR 102 WK, Dose: 0, 100, 200 MG/KG IN CORN OIL 5 D/WK FOR 102 WK, Tumor Site: Type of Lesion: FORESTOMACH: SQUAMOUS CELL CARCINOMA, SQUAMOUS CELL PAPILLOMA active; positive | Species: MOUSE, Strain/Sex: B6C3F1/MALE, Route: GAVAGE, Dose: 0, 100, 200 MG/KG IN CORN OIL 5 D/WK FOR 102 WK, Dose: 0, 100, 200 MG/KG IN CORN OIL 5 D/WK FOR 102 WK, Tumor Site: Type of Lesion: FORESTOMACH: SQUAMOUS CELL CARCINOMA, SQUAMOUS CELL PAPILLOMA, PREPUTIAL GLAND: SQUAMOUS CELL CARCINOMA active; positive | Species: RAT, Strain/Sex: F344/FEMALE, Route: GAVAGE, Dose: 0, 100, 200 MG/KG IN CORN OIL 5 D/WK FOR 103 WK, Dose: 0, 100, 200 MG/KG IN CORN OIL 5 D/WK FOR 103 WK, Tumor Site: Type of Lesion: NASAL CAVITY: CARCINOMA (NOS), CARCINOMA (NOS) OR SQUAMOUS CELL CARCINOMA, ADENOCARCINOMA, ESOPHAGUS: SQUAMOUS CELL CARC active; positive | Species: RAT, Strain/Sex: F344/MALE, Route: GAVAGE, Dose: 0, 100, 200 MG/KG IN CORN OIL 5 D/WK FOR 103 WK, Dose: 0, 100, 200 MG/KG IN CORN OIL 5 D/WK FOR 103 WK, Tumor Site: Type of Lesion: NASAL CAVITY: CARCINOMA (NOS), SQUAMOUS CELL CARCINOMA, ADENOCARCINOMA, ESOPHAGUS: SQUAMOUS CELL PAPILLOMA, SQUAMOUS CEL active; positive

ClC(Cl)C(Cl)(Cl)Cl
active: Species: MOUSE, Strain/Sex: B6C3F1/FEMALE, Route: GAVAGE, Dose: 250, 500 MG/KG IN CORN OIL FOR 41-103 WK (STUDY DURATION: 41-103 WK), Tumor Site: Type of Lesion: LIVER: HEPATOCELLULAR ADENOMA, CARCINOMA active; positive | Species: MOUSE, Strain/Sex: B6C3F1/MALE, Route: GAVAGE, Dose: 250, 500 MG/KG IN CORN OIL FOR 41-103 WK (STUDY DURATION: 41-103 WK), Tumor Site: Type of Lesion: LIVER: HEPATOCELLULAR CARCINOMA active; positive
equivocal: Species: RAT, Strain/Sex: F344/MALE, Route: GAVAGE, Dose: 0, 75, 150 MG/KG IN CORN OIL FOR 103 WK (STUDY DURATION: 103 WK), Dose: 0, 75, 150 MG/KG IN CORN OIL FOR 103 WK (STUDY DURATION: 103 WK), Tumor Site: Type of Lesion: KIDNEY: TUBULAR CELL ADENOMA
inactive: Species: RAT, Strain/Sex: F344/FEMALE, Route: GAVAGE, Dose: 0, 75, 150 MG/KG IN CORN OIL FOR 103 WK (STUDY DURATION: 103 WK), Dose: 0, 75, 150 MG/KG IN CORN OIL FOR 103 WK (STUDY DURATION: 103 WK) inactive; negative

Cc1cccn2c1nc1ccc(N)nc12
active: Species: MOUSE, Strain/Sex: B6C3F1/MALE, Route: INTRAPERITONEAL, Dose: 0, 0.625 UMOL IN 35 µL DMSO ON D 1, 8, AND 15 AFTER BIRTH (STUDY DURATION: 8 MO), Tumor Site: Type of Lesion: LIVER: HEPATOCELLULAR ADENOMA active; positive | Species: MOUSE, Strain/Sex: B6C3F1/MALE, Route: INTRAPERITONEAL, Dose: 0, 0.625 UMOL IN 35 µL DMSO ON D 1, 8, AND 15 AFTER BIRTH (STUDY DURATION: 12 MO), Tumor Site: Type of Lesion: LIVER: HEPATOCELLULAR ADENOMA active; positive | Species: MOUSE, Strain/Sex: B6C3F1/MALE, Route: INTRAPERITONEAL, Dose: 0, 1.25 UMOL IN 35 µL DMSO ON D 1, 8, AND 15 AFTER BIRTH (STUDY DURATION: 8 MO), Tumor Site: Type of Lesion: LIVER: HEPATOCELLULAR ADENOMA active; positive | Species: MOUSE, Strain/Sex: B6C3F1/MALE, Route: INTRAPERITONEAL, Dose: 0, 1.25 UMOL IN 35 µL DMSO ON D 1, 8, AND 15 AFTER BIRTH (STUDY DURATION: 12 MO), Tumor Site: Type of Lesion: LIVER: HEPATOCELLULAR ADENOMA active; positive | Species: MOUSE, Strain/Sex: CDF1/FEMALE, Route: ORAL, Dose: 0, 0.05% IN DIET FOR UP TO 685 D (STUDY DURATION: 685 D), Tumor Site: Type of Lesion: LIVER: HEPATOCELLULAR ADENOMA OR CARCINOMA, BLOOD VESSELS: HEMANGIOENDOTHELIOMA OR HEMANGIOENDOTHELIAL SARCOMA active; positive | Species: MOUSE, Strain/Sex: CDF1/MALE, Route: ORAL, Dose: 0, 0.05% IN DIET FOR 12 MO (STUDY DURATION: 12 MO), Tumor Site: Type of Lesion: BROWN ADIPOSE TISSUE: HEMANGIOENDOTHELIAL SARCOMA, LIVER: HEPATOCELLULAR ADENOMA OR CARCINOMA, LUNG: PULMONARY ADENOMA O, Tumor Site: Type of Lesion: BROWN ADIPOSE TISSUE: HEMANGIOENDOTHELIAL SARCOMA, LIVER: HEPATOCELLULAR ADENOMA OR CARCINOMA, LUNG: PULMONARY ADENOMA O active; positive | Species: MOUSE, Strain/Sex: CDF1/MALE, Route: ORAL, Dose: 0, 0.05% IN DIET FOR UP TO 685 D (STUDY DURATION: 685 D), Tumor Site: Type of Lesion: BLOOD VESSELS: HEMANGIOENDOTHELIOMA OR HEMANGIOENDOTHELIAL SARCOMA active; positive | Species: RAT, Strain/Sex: F344/FEMALE, Route: ORAL, Dose: 0, 500 PPM IN DIET (AV DAILY DOSE: 4.3 MG) FOR 24 MO (STUDY DURATION: 104 WK), Tumor Site: Type of Lesion: LIVER: HEPATOCELLULAR CARCINOMA OR ANAPLASTIC HEPATOMA, SMALL INTESTINE: ADENOMA OR ADENOCARCINOMA OR MUCINOUS CARCINOMA active; positive | Species: RAT, Strain/Sex: F344/MALE, Route: ORAL, Dose: 0, 500 PPM IN DIET (AV DAILY DOSE: 7.4 MG) FOR 24 MO (STUDY DURATION: 104 WK), Tumor Site: Type of Lesion: LIVER: HEPATOCELLULAR CARCINOMA OR ANAPLASTIC HEPATOMA, SMALL INTESTINE: ADENOMA OR ADENOCARCINOMA OR MUCINOUS CARCINOMA active; positive

O=NN(c1ccccc1)c1ccccc1
inactive: Species: MOUSE, Strain/Sex: B6C3F1/FEMALE, Route: ORAL, Dose: 0, 2315, 5741 PPM IN DIET, TWA, Dose: 0, 2315, 5741 PPM IN DIET, TWA inactive; negative | Species: MOUSE, Strain/Sex: B6C3F1/MALE, Route: ORAL, Dose: 0, 10000, 20000 PPM IN DIET, Dose: 0, 10000, 20000 PPM IN DIET inactive; negative
active: Species: RAT, Strain/Sex: F344/FEMALE, Route: ORAL, Dose: 0, 1000, 4000 PPM IN DIET, Dose: 0, 1000, 4000 PPM IN DIET, Tumor Site: Type of Lesion: URINARY BLADDER: TRANSITIONAL CELL CARCINOMA active; positive | Species: RAT, Strain/Sex: F344/MALE, Route: ORAL, Dose: 0, 1000, 4000 PPM IN DIET, Dose: 0, 1000, 4000 PPM IN DIET, Tumor Site: Type of Lesion: INTEGUMENTARY SYSTEM: FIBROMA, URINARY BLADDER: TRANSITIONAL CELL CARCINOMA active; positive

CC[C@H]1CCC[C@H](O[C@H]2CC[C@H](N(C)C)[C@@H](C)O2)[C@@H](C)C(=O)C2=C[C@@H]3[C@@H](C=C[C@@H]4C[C@@H](O[C@@H]5O[C@@H](C)[C@H](OC)[C@@H](OC)[C@H]5OC)C[C@@H]34)[C@@H]2CC(=O)O1
inactive: Species: MOUSE, Strain/Sex: CD-1/FEMALE, Route: ORAL, Dose: 0, 0.0025, 0.008, 0.024, 0.0008% IN DIET FOR 18 MO (STUDY DURATION: 18 MO), Dose: 0, 0.0025, 0.008, 0.024, 0.0008% IN DIET FOR 18 MO (STUDY DURATION: 18 MO) inactive; negative | Species: MOUSE, Strain/Sex: CD-1/FEMALE, Route: ORAL, Dose: 0.0025, 0.008, 0.036 % IN DIET FOR 18 MO (STUDY DURATION: 18 MO), Dose: 0.0025, 0.008, 0.036 % IN DIET FOR 18 MO (STUDY DURATION: 18 MO) inactive; negative | Species: MOUSE, Strain/Sex: CD-1/MALE, Route: ORAL, Dose: 0, 0.0008, 0.0025, 0.008, 0.024, 0.036% IN DIET FOR 18 MO (STUDY DURATION: 18 MO), Dose: 0, 0.0008, 0.0025, 0.008, 0.024, 0.036% IN DIET FOR 18 MO (STUDY DURATION: 18 MO) inactive; negative | Species: MOUSE, Strain/Sex: CD-1/MALE, Route: ORAL, Dose: 0.0025, 0.008, 0.036 % IN DIET FOR 18 MO (STUDY DURATION: 18 MO), Dose: 0.0025, 0.008, 0.036 % IN DIET FOR 18 MO (STUDY DURATION: 18 MO) inactive; negative | Species: RAT, Strain/Sex: F344/FEMALE, Route: ORAL, Dose: 0.005, 0.02, 0.05, 0.1% IN DIET FOR 24 MO (STUDY DURATION: 24 MO), Dose: 0.005, 0.02, 0.05, 0.1% IN DIET FOR 24 MO (STUDY DURATION: 24 MO) inactive; negative | Species: RAT, Strain/Sex: F344/MALE, Route: ORAL, Dose: 0.005, 0.02, 0.05, 0.1 % IN DIET FOR 24 MO (STUDY DURATION: 24 MO), Dose: 0.005, 0.02, 0.05, 0.1 % IN DIET FOR 24 MO (STUDY DURATION: 24 MO) inactive; negative
